Measured values: US20250115620A1, “BRIDGED TRICYCLIC CARBAMOYLPYRIDONE COMPOUNDS AND USES THEREOF” (Gilead Sciences, Inc., priority 2022, published 2025)
Where two headings read alike, the source gives them in different places.

Legend:
HIV-1 (IIIB) = assay: microbe, parasite or virus in culture; assay type: cell-based; conditions: Human immunodeficiency virus 1, IIIB, MT4, 120 h, HIV-1 (IIIB) in MT-4 cells, 5 days incubation, Cell Titer Glo; read-out: MT4 EC50
in vitro = conditions: human, uninfected MT-4 cells
pLAI reporter virus = assay: microbe, parasite or virus in culture; assay type: cell-based, HIV; conditions: Human immunodeficiency virus 1, MT4, 72 h

| SMILES | EC50 (HIV-1 (IIIB)) | CC50 at 5 days (in vitro) | EC50 (pLAI reporter virus; read-out: RLUC 50% HS EC50) | EC50 (pLAI reporter virus; read-out: RLUC CCM EC50) |
| --- | --- | --- | --- | --- |
| CC1=N[C@]2(CC[C@H](C)N3C[C@H]2n2cc(C(=O)NCc4ccc(F)cc4F)c(=O)c(O)c2C3=O)ON1C [Example 149b, (3′S,5R,7′R)—N-(2,4-difluorobenzyl)-12′-hydroxy-2,3,3′-trimethyl-1′,11′-dioxo-1′,4′,5′,11′-tetrahydro-2H,3′H,7′H-spiro[[1,2,4]oxadiazole-5,6′-[2,7]methanopyrido[1,2-a][1,4]diazonine]-10′-carboxamide] | 1.4 nM | 39100 nM | 5.7 nM | 0.4 nM |
| [2H]C([2H])([2H])OC1=NO[C@@]2(CC[C@H](C)N3C[C@H]2n2cc(C(=O)NCc4ccc(F)cc4F)c(=O)c(O)c2C3=O)C1 [Example 153, (3′S,5S,7′R)—N-(2,4-difluorobenzyl)-12′-hydroxy-3-(methoxy-d3)-3′-methyl-1′,11′-dioxo-1′,4′,5′,11′-tetrahydro-3′H,4H,7′H-spiro[isoxazole-5,6′-[2,7]methanopyrido[1,2-a][1,4]diazonine]-10′-carboxamide] | 0.9 nM | 17600 nM | 16.1 nM | 0.2 nM |
| C[C@H]1CC[C@]2(CC(S(C)(=O)=O)=NO2)[C@H]2CN1C(=O)c1c(O)c(=O)c(C(=O)NCc3c(F)cc(F)cc3F)cn12 [Example 154, (3′S,5S,7′R)-12′-hydroxy-3′-methyl-3-(methylsulfonyl)-1′,11′-dioxo-N-(2,4,6-trifluorobenzyl)-1′,4′,5′,11′-tetrahydro-3′H,4H,7′H-spiro[isoxazole-5,6′-[2,7]methanopyrido[1,2-a][1,4]diazonine]-10′-carboxamide] | 4.2 nM | 4140 nM | 22.1 nM | 1.2 nM |
| CC1=NO[C@@]2(CC[C@H](CF)N3C[C@H]2n2cc(C(=O)NCc4ccc(F)cc4F)c(=O)c(O)c2C3=O)C1 [Example 155, (3′R,5S,7′R)—N-(2,4-difluorobenzyl)-3′-(fluoromethyl)-12′-hydroxy-3-methyl-1′,11′-dioxo-1′,4′,5′,11′-tetrahydro-3′H,4H,7′H-spiro[isoxazole-5,6′-[2,7]methanopyrido[1,2-a][1,4]diazonine]-10′-carboxamide] | 1 nM | 28400 nM | 59.8 nM | 0.5 nM |
| C[C@H]1CC[C@]2(CC(=O)NO2)[C@H]2CN1C(=O)c1c(O)c(=O)c(C(=O)NCc3ccc(F)cc3F)cn12 [Example 156, (3′S,5S,7′R)—N-(2,4-difluorobenzyl)-12′-hydroxy-3′-methyl-1′,3,11′-trioxo-1′,4′,5′,11′-tetrahydro-3′H,7′H-spiro[isoxazolidine-5,6′-[2,7]methanopyrido[1,2-a][1,4]diazonine]-10′-carboxamide] | 18.1 nM | ≥ 50000 nM | 79.8 nM | 25 nM |
| CCN1O[C@@]2(CC[C@H](C)N3C[C@H]2n2cc(C(=O)NCc4c(F)cc(F)cc4F)c(=O)c(O)c2C3=O)CC1=O [Example 157, (3′S,5S,7′R)-2-ethyl-12′-hydroxy-3′-methyl-1′,3,11′-trioxo-N-(2,4,6-trifluorobenzyl)-1′,4′,5′,11′-tetrahydro-3′H,7′H-spiro[isoxazolidine-5,6′-[2,7]methanopyrido[1,2-a][1,4]diazonine]-10′-carboxamide] | 1.1 nM | ≥ 50000 nM | 4.1 nM | 0.3 nM |
| C[C@H]1CC[C@]2(CC(=O)N(Cc3ccc(Br)cc3)O2)[C@H]2CN1C(=O)c1c(O)c(=O)c(C(=O)NCc3c(F)cc(F)cc3F)cn12 [Example 158, (3′S,5S,7′R)-2-(4-bromobenzyl)-12′-hydroxy-3′-methyl-1′,3,11′-trioxo-N-(2,4,6-trifluorobenzyl)-1′,4′,5′,11′-tetrahydro-3′H,7′H-spiro[isoxazolidine-5,6′-[2,7]methanopyrido[1,2-a][1,4]diazonine]-10′-carboxamide] | 1.7 nM | 2120 nM | 3.2 nM | 0.8 nM |
| C[C@H]1CC[C@]2(CC(=O)N(Cc3ccccn3)O2)[C@H]2CN1C(=O)c1c(O)c(=O)c(C(=O)NCc3c(F)cc(F)cc3F)cn12 [Example 159, (3′S,5S,7′R)-12′-hydroxy-3′-methyl-1′,3,11′-trioxo-2-(pyridin-2-ylmethyl)-N-(2,4,6-trifluorobenzyl)-1′,4′,5′,11′-tetrahydro-3′H,7′H-spiro[isoxazolidine-5,6′-[2,7]methanopyrido[1,2-a][1,4]diazonine]-10′-carboxamide] | 1.8 nM | ≥ 50000 nM | 1.1 nM | 0.8 nM |
| C[C@H]1CC[C@]2(CC(=O)N(Cc3cccnc3)O2)[C@H]2CN1C(=O)c1c(O)c(=O)c(C(=O)NCc3c(F)cc(F)cc3F)cn12 [Example 160, (3′S,5S,7′R)-12′-hydroxy-3′-methyl-1′,3,11′-trioxo-2-(pyridin-3-ylmethyl)-N-(2,4,6-trifluorobenzyl)-1′,4′,5′,11′-tetrahydro-3′H,7′H-spiro[isoxazolidine-5,6′-[2,7]methanopyrido[1,2-a][1,4]diazonine]-10′-carboxamide] | 1.5 nM | ≥ 50000 nM | 0.5 nM | 1.6 nM |
| C[C@H]1CC[C@]2(CC(=O)N(Cc3nc4ccccc4s3)O2)[C@H]2CN1C(=O)c1c(O)c(=O)c(C(=O)NCc3c(F)cc(F)cc3F)cn12 [Example 161, (3′S,5S,7′R)-2-(benzo[d]thiazol-2-ylmethyl)-12′-hydroxy-3′-methyl-1′,3,11′-trioxo-N-(2,4,6-trifluorobenzyl)-1′,4′,5′,11′-tetrahydro-3′H,7′H-spiro[isoxazolidine-5,6′-[2,7]methanopyrido[1,2-a][1,4]diazonine]-10′-carboxamide] | 1.4 nM | ≥ 50000 nM | 0.9 nM | 0.4 nM |
| C[C@H]1CC[C@]2(CC(=O)N(Cc3nc4ccccc4[nH]3)O2)[C@H]2CN1C(=O)c1c(O)c(=O)c(C(=O)NCc3c(F)cc(F)cc3F)cn12 [Example 162, (3′S,5S,7′R)-2-((1H-benzo[d]imidazol-2-yl)methyl)-12′-hydroxy-3′-methyl-1′,3,11′-trioxo-N-(2,4,6-trifluorobenzyl)-1′,4′,5′,11′-tetrahydro-3′H,7′H-spiro[isoxazolidine-5,6′-[2,7]methanopyrido[1,2-a][1,4]diazonine]-10′-carboxamide] | 3.6 nM | ≥ 50000 nM | 5.7 nM | 1.4 nM |
| C[C@H]1CC[C@]2(CC(=O)N(Cc3nc4ccccc4n3C)O2)[C@H]2CN1C(=O)c1c(O)c(=O)c(C(=O)NCc3c(F)cc(F)cc3F)cn12 [Example 163, (3′S,5S,7′R)-12′-hydroxy-3′-methyl-2-((1-methyl-1H-benzo[d]imidazol-2-yl)methyl)-1′,3,11′-trioxo-N-(2,4,6-trifluorobenzyl)-1′,4′,5′,11′-tetrahydro-3′H,7′H-spiro[isoxazolidine-5,6′-[2,7]methanopyrido[1,2-a][1,4]diazonine]-10′-carboxamide] | 1.5 nM | ≥ 50000 nM | 2 nM | 0.9 nM |
